Source: PubChem BioAssay (NCI)
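Growth conditions: 96-well plates. Treatment: test compound, 48 hours, 5 concentrations. Analysis: linear interpolation between bracketing concentrations; unreached endpoints set to highest concentration. The concentration for 50% growth inhibition is given as GI50. TGI marks complete inhibition of growth.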

Columns and labels:
Experiment in all cases: DTP human tumour cell line panel, 48 h
[1] = test system: COLO 205 colon
[2] = test system: SW-620 colon
[3] = test system: TK-10 renal
[4] = test system: MDA-MB-435
[5] = test system: SR leukemia
[6] = test system: DU-145 prostate
[7] = test system: UACC-62 melanoma
[8] = test system: OVCAR-8 ovarian
[9] = test system: SK-MEL-5 melanoma
[10] = test system: M14 melanoma
[11] = test system: BT-549 breast
[12] = test system: RXF 393 renal
[13] = test system: NCI-H226 lung

SMILES	TGI [1] [µM]	TGI [2] [µM]	TGI [3] [µM]	TGI [4] [µM]	TGI [5] [µM]	TGI [6] [µM]	TGI [7] [µM]	TGI [8] [µM]	TGI [9] [µM]	TGI [10] [µM]	TGI [11] [µM]	TGI [12] [µM]	TGI [13] [µM]	GI50 [4] [µM]	GI50 [5] [µM]	GI50 [6] [µM]	GI50 [8] [µM]	GI50 [10] [µM]	GI50 [11] [µM]	GI50 [13] [µM]
CN(C)CCCSc1nc2ccccc2[nH]1	> 100	> 100	> 100	> 100	> 100	> 100	> 100	> 100	> 100	> 100	> 100	> 100	> 100	–	–	–	–	–	–	–
C1=NCCN2CCN(CCN=Cc3ccc(cc3)OCc3cccc(n3)COc3ccc1cc3)CC2	> 50	> 50	> 50	> 50	> 50	> 50	> 50	> 50	–	> 50	> 50	> 50	> 50	–	–	–	–	–	–	–
OC1(c2cccs2)c2cccc(Cl)c2C(O)(c2cccs2)c2c(Cl)cccc21 (stereo not given)	> 100	> 100	> 100	> 100	> 100	> 100	> 100	> 100	> 100	> 100	> 100	> 100	> 100	–	–	–	–	–	–	–
CCOc1ccc(NC(=O)C(=O)CC(=O)c2sc(NNC(C)=O)nc2C)cc1	> 100	> 100	> 100	–	> 100	–	> 100	> 100	> 100	> 100	–	> 100	> 100	–	–	–	–	–	–	–
C[C@]12C=CC(=O)C=C1CC[C@@H]1[C@@H]2CC[C@]2(C)OC(=O)CC[C@@H]12	> 500	> 496	> 500	> 500	> 489	> 500	500	498	> 477	> 500	> 500	> 485	> 493	–	–	–	–	–	–	–
CCCCCCCCCCCCCCCCCCOc1ccccc1CC(=O)OCC[N+]1(C)CCCCC1	–	–	–	3.2	4.97	9.61	–	5.99	–	6.58	7.1	–	6.25	1.7	1.93	3.02	2.4	2.52	2.65	2.18
Cc1ccc(S(=O)(=O)n2cc(-c3cc(C(F)(F)F)ccn3)c3cc(Br)ccc32)cc1	> 100	> 100	44.8	> 100	> 100	> 100	33.3	–	82.9	> 100	–	45.1	57	–	–	–	–	–	–	–
O=C(O)c1cc([N+](=O)[O-])cc2c(=O)c3cnccc3[nH]c12	> 100	–	–	> 100	> 100	> 100	> 100	> 100	> 100	> 100	> 100	> 100	> 100	–	–	–	–	–	–	–
CCOc1cc(NC(C)=O)ccc1C(=O)NN1C(=O)C(Cl)C1c1ccccc1 (stereo not given)	31.8	59.6	31.2	26	14.3	32.2	23.3	> 100	23.4	27	25.6	33.5	46.3	–	–	–	–	–	–	–
O=C([O-])C[n+]1ccccc1	> 100	> 100	> 100	> 100	–	> 100	> 100	> 100	> 100	> 100	> 100	> 100	> 100	–	–	–	–	–	–	–
O=C(Nc1ccc(Cl)cc1)c1cc2cc(N=Nc3ccccc3Cl)ccc2oc1=O	> 100	> 100	89.4	–	34.9	–	26.6	59	61.9	55	–	> 100	46.9	–	–	–	–	–	–	–
CN1CCOC(c2ccc(Cl)cc2)O1 (stereo not given)	> 100	> 100	> 100	> 100	> 100	–	> 100	> 100	> 100	> 100	> 100	> 100	> 100	–	–	–	–	–	–	–
CCOC(=O)c1cnc2oc3ccc(O)cc3c2c1C	> 100	> 100	> 100	> 100	> 100	> 100	> 100	> 100	> 100	> 100	–	> 100	> 100	–	–	–	–	–	–	–
NN(CC(=O)O)CC(=O)O	> 100	> 100	> 100	> 100	–	> 100	> 100	> 100	> 100	> 100	> 100	–	> 100	–	–	–	–	–	–	–
CN(CCCCCl)P(=O)(OCc1ccc([N+](=O)[O-])o1)OC[C@H]1O[C@@H](n2cc(F)c(=O)[nH]c2=O)C[C@@H]1O (stereo not given in full)	16.5	> 81.8	> 79.8	39	24.2	40.2	6.48	> 100	12.9	20	49.1	17.4	> 86.6	–	–	–	–	–	–	–
CCOC(=O)C1=C(C)OC2(O)C=CC(O)=C3C(=O)N(c4ccccc4)C(=O)C312 (stereo not given)	> 100	–	> 100	> 100	53.2	> 100	76.7	> 100	–	> 100	70.5	47.7	80.3	–	–	–	–	–	–	–
COc1cc2c(c(O)c1OC)-c1c(cc(OC)c(OC)c1OC)CC(C)C(C)C2 (stereo not given)	> 100	> 100	> 100	> 100	57	> 100	> 100	> 100	> 100	> 100	> 100	> 100	> 100	–	–	–	–	–	–	–
Cn1c2ccccc2n2c(N=O)c(-c3ccccc3)nc12	22.6	> 100	> 100	> 100	> 100	> 100	> 100	> 100	34.1	62.2	96.6	> 100	–	–	–	–	–	–	–	–
C=C1c2ccccc2C(=O)c2c1c1c(C(=O)OC)c(O)ccc1n2Cc1ccccc1	3.72	1.42	1.55	0.885	–	0.745	1.12	0.952	1.97	1.03	1.69	0.976	–	–	–	–	–	–	–	–
COCCOC(=O)c1c(C)n([O-])c2cc(Cl)c(Cl)cc2[n+]1=O	25	65.3	98.3	66.2	18.9	25.8	36.4	25.7	21.6	41.9	67.1	> 100	–	–	–	–	–	–	–	–
CN1CCc2[nH]c3ccccc3c2C1	> 100	> 100	–	–	–	–	> 100	> 100	> 100	–	–	> 100	> 100	–	–	–	–	–	–	–
COc1ccc2[nH]cc(CCNC(=O)[C@H](Cc3ccccc3)NC(=O)[C@@H](NCC(F)(F)F)C(C)C)c2c1	32.3	81.6	57.4	34.8	> 100	37.7	36.2	54.4	–	34.1	42.5	36.1	44	–	–	–	–	–	–	–
Nc1ncnc2nc[nH]c12	> 221	> 250	–	–	–	–	> 250	> 250	> 250	–	–	88	> 250	–	–	–	–	–	–	–
